PubChem BioAssay (NCI)
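Step 1: Grow cells in 96-well plates. Step 2: Expose to compound for 48 hours at 5 concentrations. Step 3: Interpolate endpoints linearly; if unreached, use highest concentration. At the TGI there is no net growth.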

Legend:
Assay in all cases: NCI tumour cell line growth inhibition, 48 h
NCI-H460 lung = system: NCI-H460 lung
M19-MEL melanoma = system: M19-MEL melanoma
NCI-H226 lung = system: NCI-H226 lung
HCT-15 colon = system: HCT-15 colon
IGROV1 ovarian = system: IGROV1 ovarian
OVCAR-8 ovarian = system: OVCAR-8 ovarian
EKVX NSCLC = system: EKVX NSCLC
KM20L2 colon = system: KM20L2 colon
CCRF-CEM leukemia = system: CCRF-CEM leukemia
HL-60(TB) leukemia = system: HL-60(TB) leukemia
MALME-3M melanoma = system: MALME-3M melanoma
OVCAR-4 ovarian = system: OVCAR-4 ovarian
SN12C renal = system: SN12C renal
A549 NSCLC = system: A549 NSCLC
DMS 114 small cell lung = system: DMS 114 small cell lung
MOLT-4 leukemia = system: MOLT-4 leukemia
SN12K1 renal = system: SN12K1 renal
SF-268 CNS = system: SF-268 CNS
K-562 leukemia = system: K-562 leukemia
MCF7 breast = system: MCF7 breast
RXF 393 renal = system: RXF 393 renal
OVCAR-3 ovarian = system: OVCAR-3 ovarian
UO-31 renal = system: UO-31 renal
HOP-18 NSCLC = system: HOP-18 NSCLC
NCI-H522 lung = system: NCI-H522 lung
DMS 273 small cell lung = system: DMS 273 small cell lung
UACC-257 melanoma = system: UACC-257 melanoma
RPMI-8226 leukemia = system: RPMI-8226 leukemia
A498 renal = system: A498 renal
SF-295 CNS = system: SF-295 CNS
P388/ADR leukemia = system: P388/ADR leukemia
SNB-75 CNS = system: SNB-75 CNS
HCT-116 colon = system: HCT-116 colon
SK-MEL-28 melanoma = system: SK-MEL-28 melanoma
HOP-92 NSCLC = system: HOP-92 NSCLC
SK-MEL-2 melanoma = system: SK-MEL-2 melanoma
SK-OV-3 ovarian = system: SK-OV-3 ovarian
HCC-2998 colon = system: HCC-2998 colon
P388 leukemia = system: P388 leukemia
SNB-19 CNS = system: SNB-19 CNS
SK-MEL-5 melanoma = system: SK-MEL-5 melanoma
OVCAR-5 ovarian = system: OVCAR-5 ovarian
U251 CNS = system: U251 CNS
DLD-1 colon = system: DLD-1 colon
KM12 colon = system: KM12 colon
NCI/ADR-RES ovarian = system: NCI/ADR-RES ovarian
HT29 colon = system: HT29 colon
COLO 205 colon = system: COLO 205 colon
SNB-78 CNS = system: SNB-78 CNS
CAKI-1 renal = system: CAKI-1 renal
NCI-H23 lung = system: NCI-H23 lung
HOP-62 NSCLC = system: HOP-62 NSCLC
SF-539 CNS = system: SF-539 CNS
XF 498 CNS = system: XF 498 CNS
LOX IMVI melanoma = system: LOX IMVI melanoma
SW-620 colon = system: SW-620 colon
UACC-62 melanoma = system: UACC-62 melanoma

For `CCN1CCCC(NCc2c3ccccc3c(CNC3CCCN(CC)C3)c3ccccc23)C1` (configuration not stated), the TGI (NCI-H460 lung) was 18.3 µM, the TGI (M19-MEL melanoma) was 17.6 µM and the TGI (NCI-H226 lung) was 30 µM. For the same molecule, the TGI (HCT-15 colon) was 43.9 µM, the TGI (IGROV1 ovarian) was 55.7 µM and the TGI (OVCAR-8 ovarian) was over 74.4 µM. For the same molecule, the TGI (EKVX NSCLC) was 35.9 µM, the TGI (KM20L2 colon) was 20.9 µM and the TGI (CCRF-CEM leukemia) was 41.4 µM. For the same molecule, the TGI (HL-60(TB) leukemia) was 22.7 µM, the TGI (MALME-3M melanoma) was 40.9 µM and the TGI (OVCAR-4 ovarian) was 18 µM. The TGI (SN12C renal) was 40.3 µM, the TGI (A549 NSCLC) was over 100 µM and the TGI (DMS 114 small cell lung) was 16.1 µM. For the same molecule, the TGI (MOLT-4 leukemia) was 14.8 µM, the TGI (SN12K1 renal) was 23.1 µM and the TGI (SF-268 CNS) was 38.4 µM. For the same molecule, the TGI (K-562 leukemia) was 42.6 µM, the TGI (MCF7 breast) was 15.2 µM and the TGI (RXF 393 renal) was 11.8 µM. For the same molecule, the TGI (OVCAR-3 ovarian) was 26.1 µM, the TGI (UO-31 renal) was 53.4 µM and the TGI (HOP-18 NSCLC) was over 46.6 µM. For the same molecule, the TGI (NCI-H522 lung) was 8.12 µM, the TGI (DMS 273 small cell lung) was 18.2 µM and the TGI (UACC-257 melanoma) was 26.4 µM. For the same molecule, the TGI (RPMI-8226 leukemia) was 54.3 µM, the TGI (A498 renal) was 28.2 µM and the TGI (SF-295 CNS) was 14.7 µM. For the same molecule, the TGI (P388/ADR leukemia) was 33.8 µM, the TGI (SNB-75 CNS) was 25 µM and the TGI (HCT-116 colon) was 23.3 µM. It also gave a TGI (SK-MEL-28 melanoma) of 25.9 µM, a TGI (HOP-92 NSCLC) of 38.6 µM and a TGI (SK-MEL-2 melanoma) of 11.7 µM. The TGI (SK-OV-3 ovarian) was 36.7 µM, the TGI (HCC-2998 colon) was 27.9 µM and the TGI (P388 leukemia) was 9.25 µM. The TGI (SNB-19 CNS) was 65.8 µM, the TGI (SK-MEL-5 melanoma) was 27.4 µM and the TGI (OVCAR-5 ovarian) was 19.8 µM. For the same molecule, the TGI (U251 CNS) was 45.3 µM, the TGI (DLD-1 colon) was 69.5 µM and the TGI (KM12 colon) was 31.9 µM. The TGI (NCI/ADR-RES ovarian) was 79.7 µM, the TGI (HT29 colon) was over 37.5 µM and the TGI (COLO 205 colon) was 12.7 µM. For the same molecule, the TGI (SNB-78 CNS) was over 73.1 µM, the TGI (CAKI-1 renal) was 50 µM and the TGI (NCI-H23 lung) was 34.8 µM. The TGI (HOP-62 NSCLC) was over 63.4 µM, the TGI (SF-539 CNS) was 35.7 µM and the TGI (XF 498 CNS) was over 52.1 µM. For the same molecule, the TGI (LOX IMVI melanoma) was 22.3 µM, the TGI (SW-620 colon) was 29.4 µM and the TGI (UACC-62 melanoma) was 26.8 µM.
